US7713923B2, “Self-assembling peptides incorporating modifications and methods of use thereof” (Massachusetts Institute of Technology, priority 2003, dated 2010)

Tests used:
[1] = system: human aortic endothelial cells (HAEC); test: Western blot of laminin 1 and collagen IV production by HAEC; type: cell-based; conditions: compared to conventional 2D tissue culture plates
Description: Western blots. Harvested HAEC for each culture condition were counted and lysed with sample buffer (NP0007, Invitrogen, CA) containing 2% (v/v) β-mercaptoethanol and a cocktail of protease inhibitors (1836153, Complete Mini, Roche, Penzberg, Germany) to avoid proteolysis. Cell lysates were run on a 10% PAGE system in MOPS buffer (NP0301, NP0001 Invitrogen, CA), and proteins were transferred to PVDF membranes (LC2002, Invitrogen, CA) to perform western blots. Briefly, membranes were blocked with 2% BSA and 0.1% Triton-X 100 in PBS. Two primary antibodies were used: mouse monoclonal IgG, anti human laminin γ1 [laminin B2 chain] (1 μg/ml, B1920, Chemicon, CA) and mouse monoclonal IgG, anti human collagen IV [7S domain] (2 μg/ml, MAB3326, Chemicon, CA). A secondary antibody, goat polyclonal anti-mouse IgG-HRP conjugated (1:5000 dilution, sc-2302, Santa Cruz Biotechnology, CA) was used for detection by chemiluminescence (sc-2048, Santa Cruz Biotechnology, CA). Protein bands were visualized by exposure to an X-ray film (Biomax Film, Kodak, N.Y.).

Liver progenitor cells = conditions: encapsulated cells; cited from earlier work
[2] = Rheometry (dynamic frequency and time sweep); type: physicochemical
Experimental: Rheometry. Rheological assays were performed on a 50 mm parallel plate ARES strain controlled rheometer (Rheometric Scientific, NJ). Samples were dissolved in deionized water at a final concentration of 2.9 mM and sonicated for one hour the day prior to the analysis. A volume of 1 ml was loaded on the lower plate, and the upper plate was set to a gap size between 0.4-0.45 mm. Dynamic frequency sweep tests were performed in a range of frequencies from 100 to 0.1 radis. After the test, PBS was added around the lower plate in order to promote gelation. The peptide was allowed to gel for 10 min at room temperature before the test was performed once again. After a dynamic frequency sweep test, the behavior of samples over time was tested. A dynamic time sweep test was performed at 10 rad/s for 5 min.
Rheology. A dynamic strain sweep was first performed on RAD16-I to set the linear viscoelastic region of the test and to select a fixed strain for the dynamic frequency sweep tests (FIG. 19). This linear viscoelastic range is defined by constant moduli, G′ and G″. It is important to select a strain within this range to obtain reliable results (Schramm, 1994). The strain selected was 0.01 (dimensionless) and was applied in all assays.

[3] = Gel formation by visual observation; type: physicochemical; conditions: 1% solution, standing overnight at room temperature, no PBS
Experimental: The peptides used in the examples are based on the self-assembling peptide RAD16-I. The peptide was modified to include a variety of peptide motifs previously identified as mediating various biological activities. Physicochemical and structural properties of the peptides were assessed using a variety of techniques. Peptide solubility in aqueous solution was tested. The ability of the peptides to self-assemble into higher order structures was examined. In particular, the ability of the peptides to form various secondary structures (e.g., β-sheet) was determined using circular dichroism. The ability of the peptides to self-assemble into nanofibers was evaluated using atomic force microscopy (AFM). Gel formation was assessed by visual observation and rheology.
Gel formation. Each peptide solution at 1% was used to assess hydrogel formation. […] For all the soluble peptides, gel formation was readily observed upon the addition of equal volumes of phosphate buffered saline (PBS).

neurons = neurons grown on surface; cited from earlier work

CC(=O)N[C@@H](CCCNC(=N)N)C(=O)N[C@@H](C)C(=O)N[C@@H](CC(=O)O)C(=O)N[C@@H](C)C(=O)N[C@@H](CCCNC(=N)N)C(=O)N[C@@H](C)C(=O)N[C@@H](CC(=O)O)C(=O)N[C@@H](C)C(=O)N[C@@H](CCCNC(=N)N)C(=O)N[C@@H](C)C(=O)N[C@@H](CC(=O)O)C(=O)N[C@@H](C)C(=O)N[C@@H](CCCNC(=N)N)C(=O)N[C@@H](C)C(=O)N[C@@H](CC(=O)O)C(=O)N[C@@H](C)C(N)=O [RAD16-I, AcN-(RADA)4-CONH2]
laminin 1 and collagen IV deposition by HAEC [1]: significant enhancement of laminin 1 and collagen IV deposition | hepatocyte marker expression (Liver progenitor cells): expressed markers indicative of hepatocyte phenotype | increase of both moduli (G′, G″) upon addition of salts ([2]; PBS added, 10 minutes gelation): ≈ 10 fold | storage modulus G′ ([2]; after addition of PBS, dynamic frequency sweep, strain 0.01, 2.9 mM peptide): 2.5×10^3 Pa | Increased viscosity by visual inspection [3]: Increased viscosity was observed | neurite outgrowth and synapse formation on peptide structure (neurons): able to serve as a substrate for neurite outgrowth and formation of functionally active synapses
